Data from the supplement of paper PMC10307832.

Compound: CN1CCN(CC1)C2=CC(=C(C=C2)NC3=NC(=C(S3)C(=O)C4=C(C=CC=C4Cl)Cl)N)OC [XMD14-99] + CCNC(=O)c1noc(-c2cc(C(C)C)c(O)cc2O)c1-c1ccc(CN2CCOCC2)cc1 [Luminespib] (partner 0.01 µM)
Test: relative viability (nuclei count vs DMSO), 5 days (fraction); higher = more cells survive
Summary of the method: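 After 5 days of treatment, lung cancer cells in 1536-well plates were fixed and stained in a single step (final 0.05% Triton X-100, 1% formaldehyde, 1 ug/ml Hoechst) and their nuclei counted on 4× images. Treatment had been applied by pin tool the day after seeding as one drug alone or as a fixed anchor-drug dose with five library-drug doses (not always all listed) in √10 steps. Relative viability is the nuclei count of treated wells divided by that of vehicle wells, and values are medians of duplicate plates.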

Cell Line	relative viability (first compound 0.08 µM)	relative viability (first compound 0.8 µM)	relative viability (first compound 2.53 µM)	relative viability (first compound 8 µM)
LK-2	0.183	0.188	0.206	0.171
201T	1	1.01	0.993	0.829
HCC-44	1.01	0.968	1.07	0.753
NCI-H647	0.322	0.233	0.23	0.0995
H3255	0.958	0.934	0.781	0.614
NCI-H650	0.733	0.873	0.79	0.722
NCI-H2085	0.429	0.41	0.377	0.368
NCI-H2347	0.337	0.339	0.368	0.301
NCI-H1944	0.672	0.754	0.533	0.575
NCI-H1793	0.232	0.184	0.499	0.25
NCI-H596	1.05	1.11	0.917	0.983
NCI-H520	0.191	0.219	0.217	0.223
EKVX	0.905	0.814	0.768	0.802
NCI-H358	0.219	0.262	0.323	0.281
EPLC-272H	0.658	0.512	0.417	0.195
NCI-H1563	0.505	0.551	0.546	0.48
NCI-H1395	0.733	0.685	0.699	0.555
NCI-H2228	0.147	0.19	0.153	0.104

Cell Line	relative viability (first compound 0.08 µM)	relative viability (first compound 0.8 µM)	relative viability (first compound 2.53 µM)	relative viability (first compound 8 µM)
LXF-289	0.586	0.672	0.639	0.634
NCI-H2023	0.719	–	0.617	0.471
SW 900	0.165	0.163	0.204	0.144
NCI-H3122	0.0829	0.0788	0.132	0.0985
NCI-H1755	0.464	0.396	0.305	0.369
LOU-NH91	0.443	0.325	0.294	0.3
NCI-H322M	0.857	1.06	0.939	0.863
HCC-827	0.492	0.669	0.595	0.617
SW 1573	0.157	0.365	0.236	0.214
NCI-H1975	0.268	0.238	0.206	0.209
NCI-H1651	0.939	0.647	0.63	0.644
NCI-H460	0.0305	0.037	0.0277	0.0243
LCLC-103H	0.984	1.1	0.84	0.847
LCLC-97TM1	0.843	0.747	0.728	0.516
NCI-H838	0.28	0.293	0.239	0.235
NCI-H1355	0.843	0.799	0.67	0.617
HOP-62	0.93	0.878	0.846	0.778
NCI-H2087	0.151	0.173	0.179	0.135
